Experimental data taken from the NIST ThermoML archive (doi:10.1016/j.jct.2011.09.028).

Settings: 101.33 kPa, Liquid, Vibrating tube method

CCn1cc[n+](C)c1.N#C[B-](C#N)(C#N)C#N [1-ethyl-3-methylimidazolium tetracyanoborate]
Settings | mass density [kg/m3]
288.15 K | 1044.44
293.15 K | 1040.43
298.15 K | 1036.44
303.15 K | 1032.47
308.15 K | 1028.54
313.15 K | 1024.64
318.15 K | 1020.76
